Earlier results on 1 substance are cited in patent publication US20230218648A1, “USE OF HUMAN MILK OLIGOSACCHARIDES IN NUTRITIONAL COMPOSITIONS FOR ENHANCING BONE DEVELOPMENT AND/OR BONE STRENGTH” (SOCIETE DES PRODUITS NESTLE S.A., priority 2020, published 2023).

The data set deals with osteoclast and osteoblast biology. Conditions: reported by C.A. Cowardin et al., PNAS, 2019, 116.

With 2′-fucosyllactose [2′-FL], the changes in bone-biology result is listed as “failed to elicit changes in bone-biology”.
